Test [1] concerns hTelo (unlabelled) (DNA, G4) GGGTTAGGGTTAGGGTTAGGG
The experiment in a line: CD titration. The settings on record: K+ (50 mM KCl); 10 mM Tris-HCl, pH 7.4, 25 °C; 1-10 equiv compound.

For test [2], the system named is cKIT1 (unlabelled) (DNA, G4) GGGAGGGCGCTGGGAGGAGGG
The experiment in a line: CD titration. Particulars: K+ (50 mM KCl); 10 mM Tris-HCl, pH 7.4, 25 °C; 1-10 equiv compound.

Each structure is given as a SMILES string.

The record followed here is publication PMC9953335 (2022).

For the molecule `CN1[C]N(CCCN2[C]N(C)c3ccccc32)c2ccccc21.CN1[C]N(CCCN2[C]N(C)c3ccccc32)c2ccccc21.[Au+].[Au+]`, the binding result in test [1] and in test [2] was “yes” each time.

On to `CN1[C]N(CCCN2[C]N(C)c3c2c(=O)n(C)c(=O)n3C)c2c1n(C)c(=O)n(C)c2=O.CN1[C]N(CCCN2[C]N(C)c3c2c(=O)n(C)c(=O)n3C)c2c1n(C)c(=O)n(C)c2=O.[Au+].[Au+]`, for which the binding result in test [1] and in test [2] was “yes” each time.
